These results are taken from patent publication US12128045B2, “Platinum-resistant cancer treatment” (BTG International Limited, priority 2017, dated 2024).

Data set [1] is described as follows: Phase I trial EudraCT3941 (Example 1): pharmacokinetics. Format: in vivo, human. The text has this: (§1) Methods: A 3+3 dose escalation design was used and two IV schedules were explored. Schedule A, weekly dosing (QW) and schedule B, once every 2 weeks dosing (Q2W). A cycle consisted of 4 weeks and treatment was stopped after 6 cycles in both schedules. An expansion cohort to evaluate clinical activity in patients with FR-α overexpressing high grade serous ovarian cancer (HGSOC) was initiated.

Data set [2] in a line: Phase I trial EudraCT3941 (Example 1): safety and toxicity. Format: in vivo, human.
Text: as §1

The target of data set [3] is T1, folylpolyglutamate synthase (FPGS) (Homo sapiens, UniProt Q05932).
T1 sequence (Q05932 43-587): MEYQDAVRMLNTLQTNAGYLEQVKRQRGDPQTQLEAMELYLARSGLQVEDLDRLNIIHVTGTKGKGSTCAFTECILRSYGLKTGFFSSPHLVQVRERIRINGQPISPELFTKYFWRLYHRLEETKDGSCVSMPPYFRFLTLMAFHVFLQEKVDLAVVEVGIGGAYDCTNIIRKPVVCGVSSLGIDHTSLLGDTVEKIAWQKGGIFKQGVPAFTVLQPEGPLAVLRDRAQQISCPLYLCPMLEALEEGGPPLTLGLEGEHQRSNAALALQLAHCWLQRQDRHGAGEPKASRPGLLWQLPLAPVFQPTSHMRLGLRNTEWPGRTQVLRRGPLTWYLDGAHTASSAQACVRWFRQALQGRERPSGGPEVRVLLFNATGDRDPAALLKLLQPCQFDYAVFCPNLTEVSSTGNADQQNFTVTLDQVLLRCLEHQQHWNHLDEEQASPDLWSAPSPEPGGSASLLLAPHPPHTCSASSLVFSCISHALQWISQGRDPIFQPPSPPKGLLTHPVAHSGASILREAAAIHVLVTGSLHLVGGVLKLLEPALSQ
The conditions noted are these: cited from earlier work.

For data set [4], the target named is alpha-folate receptor (FR-α) (Homo sapiens, UniProt P15328). Particulars: relative to folic acid; Theti et al., 2003; cited from earlier work.
alpha-folate receptor (FR-α), sequence (P15328 25-234, species assumed): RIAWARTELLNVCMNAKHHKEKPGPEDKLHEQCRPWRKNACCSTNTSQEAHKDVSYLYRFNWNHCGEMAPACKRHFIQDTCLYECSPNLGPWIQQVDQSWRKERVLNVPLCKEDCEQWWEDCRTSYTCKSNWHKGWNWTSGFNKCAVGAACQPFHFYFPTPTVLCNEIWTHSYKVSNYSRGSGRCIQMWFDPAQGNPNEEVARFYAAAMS
The nature of data set [5]: Half life on administration to man. Particulars: in vivo.
In data set [6] the target is T2, thymidylate synthase (Homo sapiens, UniProt P04818).
T2 construct: from tissue; host or cells: tumour tissue of trial patients, in vivo
T2 sequence (P04818 2-313 limits assumed): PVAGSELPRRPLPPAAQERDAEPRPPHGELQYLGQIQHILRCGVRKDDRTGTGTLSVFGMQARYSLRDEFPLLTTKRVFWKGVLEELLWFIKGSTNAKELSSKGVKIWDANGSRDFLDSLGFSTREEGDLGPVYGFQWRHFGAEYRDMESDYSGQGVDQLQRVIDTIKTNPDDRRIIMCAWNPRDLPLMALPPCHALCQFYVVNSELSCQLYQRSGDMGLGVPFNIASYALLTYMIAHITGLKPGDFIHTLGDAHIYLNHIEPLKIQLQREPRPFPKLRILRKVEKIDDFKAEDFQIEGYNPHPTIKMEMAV
Kind of data set: FLT PET imaging of thymidylate synthase inhibition in trial patients. Particulars: in vivo. An excerpt:
3827-3834. 2008 (Pillai et al).

For data set [7], the system named is tumour cell proliferation. The data set is described as follows: Inhibition of tumour cell proliferation in vitro. It is filed as cell-based.
The subject of data set [8] is reduced folate carrier (RFC). The conditions noted are these: except at high concentrations; Gibbs et al., 2005; cited from earlier work.
For data set [9], the target named is thymidylate synthase (TS). The conditions noted are these: read-out: Ki against isolated target thymidine synthase; cited from earlier work.
For data set [10] the following is noted: in vivo; cited from earlier work.
The test system of data set [11] is high grade serous ovarian cancer (HGSOC). The data set is described as follows: Phase I trial EudraCT3941 (Example 1): tumour response (RECIST partial responses). It is filed as in vivo, human.
Text: as §1

For data set [12] the following is noted: in vivo; cited from earlier work. This is another data set of the same source.
The test system of data set [13] is platinum-sensitive epithelial ovarian cancer. The conditions noted are these: 1,100 patient Phase III, with paclitaxel and carboplatin; cited from earlier work.
Data set [14] concerns platinum resistant epithelial ovarian cancer. Particulars: 6 mg/kg every three weeks, cited from earlier work.
Setting [15] is: expansion cohort, archival samples analysed.

Consider `C#CCN(c1ccc(C(=O)N[C@@H](CCC(=O)N[C@H](CCC(=O)O)C(=O)O)C(=O)O)cc1)[C@H]1CCc2cc3nc(CO)[nH]c(=O)c3cc21` [BTG945, N—{N-{4-[N-((6S)-2-Hydroxymethyl-4-oxo-3,4,7,8-tetrahydro-6H-cyclo-penta[g]quinazolin-6-yl)-N-(prop-2-ynyl)amino]benzoyl}-L-γ-glutamyl}-D-glutamic acid], for which, in [1] (doses above 6 mg/m^2), the “period for which concentrations above 0.5 μM were achieved” value stood at 72 h. The “period for which concentrations between 0.05-1 μM were achieved” value in [1] (doses of 4 mg/m^2 and above) is 48 h. Further, in data set [1] (human, in vivo, iv, 12 mg/m2), the AUC – broadly, concentration integrated over time – turned out to be 85200 ng·h/mL; the peak concentration (Cmax) (usually the highest concentration seen after dosing) is 4950 ng/mL; the half-life (in general, how long it takes for the measured level to halve) is 26 h. Also, in [2] (human, in vivo, 24 weeks), the “grade 3-4 diarrhea, mucositis or neutropenia” value is on record as “No grade 3-4 diarrhea, mucositis or neutropenia”; the incidence of dysgeusia worked out at 12%; the incidence of fatigue came to 36%; the incidence of nausea was found to be 21%. Besides, in data set [2] (in vivo), the “cases of suspected drug-related drop in Dlco” value is reported as “No cases”; the “conventional toxicities of cytotoxic chemotherapy (myelotoxicity, nephrotoxicity, neurotoxicity)” value is reported as “not observed”; the “dose limiting effects other than BOOP” value is “not seen”; the “occurrence of treatment limiting BOOP” value is reported as “without occurrence”. In data set [2] (in vivo), the “side effects associated with α-folate receptor antibody conjugates (diarrhoea, blurred vision, nausea)” value is reported as “not observed” and the “side effects normally associated with thymidine synthase inhibitors (neutropenia, diarrhoea, hair loss)” value is given as “not observed”. Besides, the dose limiting toxicity result in data set [2] (schedule A, weekly IV dosing (QW), 1-6 mg/m^2) is “G3 cellulitis”. The dose limiting toxicity entry in [2] (schedule B, IV once every 2 weeks (Q2W), 2-12 mg/m^2) was “no dose limiting toxicity”. Moreover, the “substrate for FPGS” value in data set [3] is reported as “not a substrate”. Further, the “affinity for α-FR as % of folic acid (FA)” value in data set [4] was 70%. The “half life levels on administration to man” value in data set [5] is given as “unusually long”. In data set [6], the “thymidylate synthase inhibition by FLT PET imaging” value is recorded as “Evidence of thymidylate synthase inhibition”. Also, the “inhibition of tumour cell proliferation in vitro” value in data set [7] was “concentration and time-dependent inhibition”. In addition, the “affinity for reduced folate carrier (RFC)” value in [8] is given as “negligible affinity”. For the same compound, the Ki (in general, the equilibrium dissociation constant of an inhibitor or competing ligand from its target) in data set [9] was 1.2 nM. Further, the “dose at which toxicity occurred (incidence of BOOP)” value in data set [10] is listed as 45 mg/m^2. Moreover, the “patients with HGSOC with partial responses (PRs)” value in data set [11] (dose escalation cohort) turned out to be 5 patients. The “patients with PRs” value in data set [11] (expansion cohort, HGSOC, 12 mg/m^2 Q2W) is listed as 5/11. Also, in data set [11] (setting [15]), the “AFR+ve patients with PR” value was 4/4 and the “AFR−ve patients who did not have a PR” value was 4/4.

As for `C#CCN(Cc1cc2c(=O)[nH]c(C)nc2cc1C)c1ccc(C(=O)N[C@@H](CCc2nnn[nH]2)C(=O)O)c(F)c1` [Plevitrexed, plevitrexed], in data set [3], the “substrate for FPGS” value is given as “not a substrate”. The half-life in plasma result in data set [12] was “long”.

Take `Cc1nc2ccc(CN(C)c3ccc(C(=O)N[C@@H](CCC(=O)O)C(=O)O)s3)cc2c(=O)[nH]1` [Raltitrexed, raltitrexed]: the “substrate for FPGS” value in [3] is listed as “excellent substrates”. In data set [12], the half-life in plasma entry is given as “fairly short”.

Consider `Nc1nc2[nH]cc(CCc3ccc(C(=O)N[C@@H](CCC(=O)O)C(=O)O)cc3)c2c(=O)[nH]1` [pemetrexed], for which, in data set [3], the “substrate for FPGS” value is “excellent substrates”. Moreover, in data set [12], the half-life in plasma entry is recorded as “fairly short”.

With “Farletuzumab: FR-α targeted monoclonal antibody”, the “progression free survival (PFS)” value in data set [13] is recorded as “failed to improve progression free survival”.

With “IMGN853: Antibody-drug conjugate, FR-α targeted”, the “share of patients with three or less prior lines of therapy showing this outcome” value in data set [14] is recorded as 39%. For the same compound, in data set [14] (patients with three or less prior lines of therapy), the PFS was 6.7 months.
